Reference: patent US4661516A, “Diaminocyclohexane platinum complexes” (Research Corporation, priority 1984, dated 1987)

Tests used:
[1] = tested on: L1210 leukemia cells (L1210/PDD); experiment: In vitro cytotoxicity / cross-resistance, L1210/PDD (L1210/DDP) cells resistant to cisdiamminedichloroplatinum(II); format: cell-based; settings: for ID50 L1210/DDP: Tables VII and VIII, 5760 min; for ID50 L1210/PDD: 96 hours
Description: Four ml of cell suspension were added to culture tubes and the appropriate concentration (0.01, 0.1, 1 or 10 μg/ml final drug concentration) was added. After 96 hours the cell concentration of control and experimental cultures were calculated with the aid of a Coulter Counter® Model ZBf and the percent inhibition calculated.

[2] = tested on: Wild type L1210 leukemic cells; experiment: In vitro cytotoxicity, wild type L1210 leukemic cells (L1210/0); format: cell-based; settings: for ID50: L1210, 72 hours incubation; for ID50 L1210/0: L1210/0, protocol of Example 14, Tables VII and VIII
Description: Four ml of cell suspension (10^5 cells/ml) are added to culture tubes and the appropriate concentration (0.01, 0.1, 1 or 10 μg/ml final concentration) of drug added to the culture tubes. After 72 hours of incubation, the cell concentration of control and experimental cultures are determined with the aid of a Coulter Counter® Model ZBf and the percent inhibition calculated. […]

L1210 cells = experiment: In vivo anti-tumor activity, L1210, single i.p. injection; parameters: species or system BDF1 mice; settings: single i.p.
Description: About 24 hours after inoculation of the cells, the mice were injected intraperitoneally with varying dosages of complexes of the present invention. […] Long term survival signifies that animals were alive 60 days after inoculation with L1210 cells.

L1210/0 leukemia cells = experiment: In vivo anti-tumor activity, L1210 (L1210/0), multiple i.p. doses; parameters: species or system BDF1 mice; settings: for Maximal Effective Dose: i.p. on days 1, 5 and 9; for LTS: survivors/treated 50 days after treatment
Description: BDF1 mice were inoculated intraperitoneally with 10^6 L1210 cells. About 24 hours after inoculation of the cells, the mice were injected intraperitoneally with varying dosages of complexes of the present invention. Six mice were used for each dosage level in each experiment with an equal number of control mice inoculated with 10^6 L1210 cells and left untreated with a given complex. The results [%T/C=(survival time of treated animals/survival time of control animals)×100] are set forth below. Long term survival signifies that animals were alive 60 days after inoculation with L1210 cells.
The procedure of Example 16 was repeated except that the treated animals were injected with multiple doses of the complex as indicated below:
The anti-tumor activity of compound number 3 was evaluated against cells sensitive to (L1210/0) and resistant to (L1210/PDD) the standard platinum complex cis-diamminedichloroplatinum(II).
The following complexes were tested in vivo oncolytic activity following 3 i.p. injections (days 1, 5, 9) according to the protocol described in Examples 16 and 17.
BDF1 mice were innoculated intraperitoreally with 10^6 L1210 leukemia cells and treatment was begun on the next day (day 1). Two treatment schedules, i.e. single i.p. injection of the drug and i.p. injections on days 1, 5 and 9 according to the protocol described in Examples 16 and 17 were used.

Male albino mice = experiment: Acute toxicity, single intraperitoneal injection (Example 19); format: in vivo; settings: single i.p.; for Calculated LD10 / Calculated LD50 / Calculated LD90: 14 days
Description: Fourteen days after treatment all surviving mice were sacrified and the LD10, LD50 and LD90 were calculated.

B16 cells = experiment: Melanotic melanoma test, i.p. inoculated B16 melanoma; format: in vivo, BDF1 mice; settings: for Maximal Effective Dose: B16, i.p. days 1, 5 and 9; for % T/C / Long Term Survivors: B16, i.p. days 1, 5 and 9, at maximal effective dose; for Long Term Survivors: 60 days
Description: The animals used were BDF1 mice, all of the same sex, weighing a minimum of 18 g. and all within a 4 g. weight range. There were 6 animals per test group. […] The test compounds were administered intraperitoneally on days 1, 5 and 9 at various doses. The animals were weighed and survivors were recorded on a regular basis for 60 days. The median survival time and the ratio of survival time for treated (T)/control (C) animals were calculated. […] The criterion for efficacy is T/C×100≥125%.

[3] = Tables X and XI, days 1, 5 and 9, at maximal effective dose, alive 60 days after tumor inoculation
[4] = Tables X and XI, i.p. on days 1, 5 and 9, at maximal effective dose

Molecule: NC1CCCCC1N.O=C1OC(C(O)CO)C([O-])=C1O.O=C1OC(C(O)CO)C([O-])=C1O.[Pt+2] (mixture of isomers) [Compound 7, cis-bis-isoascorbato(DACH)Pt(II).3H2 O]
- ID50 L1210/DDP [1]: 3.8 µg/mL
- ID50 ([2]; 4320 min): 4.1 µg/mL
- % T/C (L1210 cells; 25 mg/kg): 132%
- % T/C (L1210 cells; 50 mg/kg): 136%
- % T/C (L1210 cells; 100 mg/kg): 196%
- animals died of apparent drug toxicity (L1210 cells; 100 mg/kg): 2/6
- Long Term Survivors (L1210 cells; 100 mg/kg, alive 60 days after inoculation): 1/6
- % T/C (L1210/0 leukemia cells; 12.5 mg/kg, days 1,5,9): 151%
- % T/C (L1210/0 leukemia cells; 25 mg/kg, days 1,5,9): 179%
- % T/C (L1210/0 leukemia cells; 50 mg/kg, days 1,5,9): 212%

Molecule: N[C@@H]1CCCC[C@H]1N.O=C1O[C@H]([C@@H](O)CO)C([O-])=C1O.O=C1O[C@H]([C@@H](O)CO)C([O-])=C1O.[Pt+2] [Compound 4, cis-bis-ascorbato(trans-R,R--DACH)Pt(II).3H2 O]
- ID50 L1210/PDD [1]: 0.4 µg/mL
- ID50 [2]: 1.9 µg/mL
- % T/C (L1210 cells; 25 mg/kg): 128%
- % T/C (L1210 cells; 50 mg/kg): 184%
- Long Term Survivors (LTS) (L1210 cells; 50 mg/kg, alive 60 days after inoculation): 1/6
- % T/C (L1210/0 leukemia cells; 25 mg/kg, days 1,5,9): 218%
- % T/C (L1210/0 leukemia cells; 50 mg/kg, days 1,5,9): 144%

Molecule: N[C@H]1CCCC[C@@H]1N.O=C1O[C@H]([C@@H](O)CO)C([O-])=C1O.O=C1O[C@H]([C@@H](O)CO)C([O-])=C1O.[Pt+2] [Compound 5, cis-bis-ascorbato(trans-S,S--DACH)Pt(II).2H2 O]
- ID50 L1210/PDD [1]: 2.3 µg/mL
- ID50 [2]: 4.4 µg/mL
- % T/C (L1210 cells; 25 mg/kg): 136%
- % T/C (L1210 cells; 50 mg/kg): Toxic
- DEATHS/TREATED (Male albino mice; 60 mg/kg): 0/6
- DEATHS/TREATED (Male albino mice; 80 mg/kg): 2/6
- DEATHS/TREATED (Male albino mice; 100 mg/kg): 5/6
- DEATHS/TREATED (Male albino mice; 125 mg/kg): 6/6
- DEATHS/TREATED (Male albino mice; 160 mg/kg): 5/6
- Calculated LD10 (Male albino mice): 70 mg/kg
- Calculated LD50 (Male albino mice): 90 mg/kg
- Calculated LD90 (Male albino mice): 125 mg/kg

Molecule: NC1CCCCC1N.O=C1O[C@H]([C@@H](O)C(=O)[O-])[C@H](O)[C@H]1O.O=C1O[C@H]([C@@H](O)C(=O)[O-])[C@H](O)[C@H]1O.[Pt+2] [Compound 9, cis-bis-D-saccharato-1,4-lactone(DACH)Pt(II)]
- ID50 L1210/PDD [1]: 0.6 µg/mL
- ID50 [2]: 3.0 µg/mL
- % T/C (L1210 cells; 12.5 mg/kg): 127%
- % T/C (L1210 cells; 25 mg/kg): 138%
- % T/C (L1210 cells; 50 mg/kg): 156%
- % T/C (L1210 cells; 100 mg/kg): Toxic
- DEATHS/TREATED (Male albino mice; 85 mg/kg): 0/6
- DEATHS/TREATED (Male albino mice; 100 mg/kg): 0/6
- DEATHS/TREATED (Male albino mice; 125 mg/kg): 3/6
- DEATHS/TREATED (Male albino mice; 158 mg/kg): 5/6
- DEATHS/TREATED (Male albino mice; 200 mg/kg): 4/6
- Calculated LD10 (Male albino mice): 100 mg/kg
- Calculated LD50 (Male albino mice): 140 mg/kg
- Calculated LD90 (Male albino mice): 185 mg/kg

Molecule: NC1CCCCC1N.NCCOS(=O)(=O)[O-].NCCOS(=O)(=O)[O-].[Pt+2] (stereo not drawn) [Compound 14, cis-bis-2-aminoethylsulfato(DACH)Pt(II)]
- ID50 L1210/DDP [1]: 3.7 µg/mL
- ID50 [2]: 4.3 µg/mL

Molecule: NC1CCCCC1N.O=C([O-])C1CCCN1.O=C([O-])C1CCCN1.[Pt+2] [Compound 16, cis-bis-L-prolinato(DACH)Pt(II)]
- ID50 L1210/DDP [1]: 2.5 µg/mL
- ID50 [2]: 4.0 µg/mL
- % T/C (L1210 cells; 12.5 mg/kg): 144%
- % T/C (L1210 cells; 25 mg/kg): 165%
- % T/C (L1210 cells; 50 mg/kg): 165%
- % T/C (L1210 cells; 100 mg/kg): 162%
- animals died of apparent drug toxicity (L1210 cells; 100 mg/kg): 1 animals

Molecule: NC(=O)CN(CC(=O)[O-])CC(=O)[O-].NC1CCCCC1N.[Pt+2] [Compound 42, N--(2-Acetamido)-iminodiacetato(DACH)Pt(II).1/2H2 O]
- ID50 L1210/DDP [1]: 1.8 µg/mL
- ID50 [2]: 0.7 µg/mL
- ID50 L1210/0 ([2]; 4320 min): 3.0 µg/mL

Molecule: CN(CC(=O)[O-])CC(=O)[O-].N[C@@H]1CCCC[C@H]1N.[Pt+2] [Identifier No. 11a, mono-N--methyliminodiacetato]
- ID50 L1210/DDP [1]: 1.9 µg/mL
- ID50 L1210/0 ([2]; 4320 min): 0.8 µg/mL
- Maximal Effective Dose (B16 cells): 25 mg/kg
- % T/C (B16 cells): 210%
- Long Term Survivors (B16 cells): 2/6
- Long Term Survivors (L1210/0 leukemia cells; [3]): 6/6
- Maximal Effective Dose (L1210/0 leukemia cells; Tables X and XI): 6.25 mg/kg
- % T/C (L1210/0 leukemia cells; [4]): 700%

Molecule: N[C@@H]1CCCC[C@H]1N.O=C([O-])CN(CCO)CC(=O)[O-].[Pt+2] [Identifier No. 12a, mono-N--hydroxyethyliminodiacetato]
- ID50 L1210/DDP [1]: 1.8 µg/mL
- ID50 L1210/0 ([2]; 4320 min): 1.4 µg/mL
- Maximal Effective Dose (B16 cells): 25 mg/kg
- % T/C (B16 cells): 265%
- Long Term Survivors (B16 cells): 4/6
- Long Term Survivors (L1210/0 leukemia cells; [3]): 2/6
- Maximal Effective Dose (L1210/0 leukemia cells; Tables X and XI): 6.25 mg/kg
- % T/C (L1210/0 leukemia cells; [4]): 384%

Molecule: Cis-bis-cyclopentenecarboxylato(DACH)Pt(II).2H2 O [Compound 26]
- ID50 [2]: 1.3 µg/mL
- % T/C (L1210 cells; 12.5 mg/kg): 185%
- % T/C (L1210 cells; 25 mg/kg): 158%
- % T/C (L1210 cells; 50 mg/kg): 157%
- % T/C (L1210/0 leukemia cells; 6.25 mg/kg i.p., days 1, 5, 9, 30 day observation period): 189%
- % T/C (L1210/0 leukemia cells; 12.5 mg/kg i.p., days 1, 5, 9, 30 day observation period): 356%
- LTS (L1210/0 leukemia cells; 12.5 mg/kg, days 1, 5, 9): 1/6
- % T/C (L1210/0 leukemia cells; 25 mg/kg i.p., days 1, 5, 9, 30 day observation period): 300%
- LTS (L1210/0 leukemia cells; 25 mg/kg, days 1, 5, 9): 1/6

Molecule: cis-bis-D-monosaccharato(DACH)Pt(II).3H2 O [Compound 8]
- ID50 L1210/PDD [1]: 0.9 µg/mL
- ID50 [2]: 2.8 µg/mL
- % T/C (L1210 cells; 12.5 mg/kg): 120%
- % T/C (L1210 cells; 25 mg/kg): 129%
- % T/C (L1210 cells; 50 mg/kg): 156%
- % T/C (L1210 cells; 100 mg/kg): 151%
- % T/C (L1210 cells; 200 mg/kg): Toxic
- DEATHS/TREATED (Male albino mice; 100 mg/kg): 1/6
- DEATHS/TREATED (Male albino mice; 125 mg/kg): 1/6
- DEATHS/TREATED (Male albino mice; 158 mg/kg): 4/6
- DEATHS/TREATED (Male albino mice; 200 mg/kg): 3/6
- DEATHS/TREATED (Male albino mice; 250 mg/kg): 6/6
- Calculated LD10 (Male albino mice): 115 mg/kg
- Calculated LD50 (Male albino mice): 155 mg/kg
- Calculated LD90 (Male albino mice): 220 mg/kg
- % T/C (L1210/0 leukemia cells; 25 mg/kg, days 1,5,9): 206%
- % T/C (L1210/0 leukemia cells; 50 mg/kg, days 1,5,9): 225%
- Long Term Survivors (L1210/0 leukemia cells; 50 mg/kg, days 1,5,9): 1/6

Molecule: furanedicarboxylato(DACH)Pt(II) [Compound 19]
- ID50 L1210/DDP [1]: 0.9 µg/mL
- ID50 [2]: 1.0 µg/mL
- % T/C (L1210 cells; 6.25 mg/kg): 143%
- % T/C (L1210 cells; 12.5 mg/kg): 136%
- % T/C (L1210 cells; 25 mg/kg): 136%
- % T/C (L1210 cells; 50 mg/kg): Toxic

Molecule: isocitratomonoethylester(DACH)Pt(II).1.5H2 O [Compound 21]
- ID50 L1210/DDP [1]: 1.9 µg/mL
- ID50 [2]: 2.0 µg/mL

Molecule: mono-N--benzyliminodiacetato [Identifier No. 15a]
- ID50 L1210/DDP [1]: 2.4 µg/mL
- ID50 L1210/0 ([2]; 4320 min): 1.0 µg/mL
- Maximal Effective Dose (B16 cells): 12.5 mg/kg
- % T/C (B16 cells): 252%
- Long Term Survivors (B16 cells): 3/6
- Long Term Survivors (L1210/0 leukemia cells; [3]): 4/6
- Maximal Effective Dose (L1210/0 leukemia cells; Tables X and XI): 6.25 mg/kg
- % T/C (L1210/0 leukemia cells; [4]): 620%
